Experiments:
[1] = in vivo; parameters: species or system Sprague-Dawley (SD) rats; settings: Sprague-Dawley, plasma, rat
Protocol: At each time, 0.5 mL of blood was collected in the heparin sodium tubes. Plasma was separated by centrifugation at 4000 rpm for 10 min and stored below −80 °C until bioanalysis. Oasis PRiME HLB SPE cartridges (1 cc/30 mg, Waters, Milford, MA, USA) were used to process the plasma samples (Supplementary Materials).
The generic layout of instrumentation setup of the LVDI-UHPLC-MS/MS was conducted on a Shimadzu UHPLC system consisting of two LC-20ADXR pumps, a DGU-20A3R degasser, and a CBM-20A controller (Kyoto, Japan) with a SCIEX 4500 QTRAP mass spectrometer mounted with an electron spray ionization (ESI) interface as well as an electronic 6-port/2-channel valve (Foster City, CA, USA). Analyst software package (version 1.6.2, SCIEX) was implemented to control and synchronize the entire system, and also for data acquisition and processing. A single analytical run was fragmented into two phases, namely, loading and elution phases, by switching the electronic valve (Figure 2). At the loading phase, the valve was maintained at A-channel. The specimen aliquot of large volume delivered from the auto-sampler was captured onto a guard column. Meanwhile, the pumps were responsible for delivering the mobile phase at a high flow rate, aiming to dilute the sample solvent, thus facilitating the candidate constituents to concentrate on the pre-guard column. Then, the valve was automatically switched to the B-channel to trigger the elution phase. The trapped components were flushed from the pre-guard column into an analytical column, and underwent multiple reaction monitoring (MRM) analysis on the optimized LC gradients. The detailed information of LVDI-UHPLC-MS/MS analysis for pharmacokinetic and cocktail studies is shown in the Supplementary Materials section.

[2] = system: CYP2C19; experiment: In vitro cocktail CYP450 activity assay in rat liver microsomes, CYP2C19 (omeprazole probe)
Protocol: (§1) (OHBUP-[D6]) and 5 nM 4′-hydroxydiclofenac-[^13C6] (OHDIC-[^13C6]) as internal standards (ISs). […]
(§2) standard addition experiments. Each group included four concentration levels. For the PK […]
(§3) The probe compounds, viz. […]
(§4) chosen after incubating all the recruited substrates. In order to assure the linear relationship […]
(§5) The incubation system was also optimized in terms of substrate concentrations. The substrates concentrations of […]

[3] = system: CYP2B6; experiment: In vitro cocktail CYP450 activity assay in rat liver microsomes, CYP2B6 (bupropion probe)
Protocol: as §1, §2, §3, §4, §5

[4] = system: CYP2C9; experiment: In vitro cocktail CYP450 activity assay in rat liver microsomes, CYP2C9 (tolbutamide probe)
Protocol: as §1, §2, §3, §4, §5

[5] = system: CYP2D6; experiment: in vitro; settings: Sprague-Dawley, rat
Protocol: as §1, §2, §3, §4, §5

[6] = system: CYP3A4; experiment: in vitro; settings: Sprague-Dawley, rat, pH 7.4
Protocol: as §1, §2, §3, §4, §5

[7] = biological target: T1, CYP1A2 (Rattus norvegicus, UniProt P04799); experiment: In vitro cocktail CYP450 activity assay in rat liver microsomes, CYP1A2 (phenacetin probe)
T1 sequence (P04799 1-513): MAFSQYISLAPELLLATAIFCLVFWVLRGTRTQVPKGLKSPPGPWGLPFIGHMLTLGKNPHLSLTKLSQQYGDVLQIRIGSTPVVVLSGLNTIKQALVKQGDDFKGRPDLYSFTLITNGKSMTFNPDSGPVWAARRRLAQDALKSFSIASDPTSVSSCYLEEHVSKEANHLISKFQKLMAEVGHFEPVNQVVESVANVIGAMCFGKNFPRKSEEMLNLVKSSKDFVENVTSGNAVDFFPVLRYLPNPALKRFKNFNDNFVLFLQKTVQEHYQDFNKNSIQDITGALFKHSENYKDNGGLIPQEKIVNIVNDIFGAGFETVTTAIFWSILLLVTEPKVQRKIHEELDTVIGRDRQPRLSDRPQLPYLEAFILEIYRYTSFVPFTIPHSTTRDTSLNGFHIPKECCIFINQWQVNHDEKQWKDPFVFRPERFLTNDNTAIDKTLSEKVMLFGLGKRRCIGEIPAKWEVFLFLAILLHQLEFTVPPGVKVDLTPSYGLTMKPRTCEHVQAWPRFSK
Protocol: as §1, §2, §3, §4, §5

[8] = biological target: T2, CYP2E1 (Rattus norvegicus, UniProt P05182); settings: IC50 CYP2E1, single components; RLM 0.2 mg/mL, 15 min, triplicate, mean ± SD
[9] = biological target: T2, CYP2E1; settings: at the Cmax level in rat plasma, calculated from the dose–response curve
[10] = at the Cmax level in rat plasma, calculated from the dose–response curve

T2 sequence (P05182 whole entry): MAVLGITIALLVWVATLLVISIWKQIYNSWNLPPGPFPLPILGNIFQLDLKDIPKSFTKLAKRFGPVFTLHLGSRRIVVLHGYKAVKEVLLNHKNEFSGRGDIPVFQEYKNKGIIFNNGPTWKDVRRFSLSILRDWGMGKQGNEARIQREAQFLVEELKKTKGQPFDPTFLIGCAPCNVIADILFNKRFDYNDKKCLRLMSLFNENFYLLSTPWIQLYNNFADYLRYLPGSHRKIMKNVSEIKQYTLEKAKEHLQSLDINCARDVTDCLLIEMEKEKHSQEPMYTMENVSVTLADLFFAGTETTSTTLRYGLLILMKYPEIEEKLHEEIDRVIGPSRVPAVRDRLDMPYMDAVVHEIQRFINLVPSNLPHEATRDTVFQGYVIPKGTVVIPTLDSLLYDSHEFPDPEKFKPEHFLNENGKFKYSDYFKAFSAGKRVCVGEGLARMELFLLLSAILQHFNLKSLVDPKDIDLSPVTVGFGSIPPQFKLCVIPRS

CC(C)=CCC[C@](C)(O[C@@H]1O[C@H](CO[C@@H]2O[C@H](CO)[C@@H](O)[C@H](O)[C@H]2O)[C@@H](O)[C@H](O)[C@H]1O)[C@H]1CC[C@]2(C)[C@@H]1[C@H](O)C[C@@H]1[C@@]3(C)CC[C@H](O[C@@H]4O[C@H](CO)[C@@H](O)[C@H](O)[C@H]4O[C@@H]4O[C@H](CO)[C@@H](O)[C@H](O)[C@H]4O)C(C)(C)[C@@H]3CC[C@]12C [GRb1, ginsenoside Rb1]
concentration at […] ([1]; 0.083 h after oral CNP): 18.7 ± 4.36 ng/mL | concentration at 0.25 h ([1]; 0.25 h after oral CNP): 22.5 ± 4.27 ng/mL | concentration at 0.5 h ([1]; 0.5 h after oral CNP): 36.1 ± 7.79 ng/mL | concentration at 1 h ([1]; 1 h after oral CNP): 45.5 ± 3.29 ng/mL | concentration at 1.5 h ([1]; 1.5 h after oral CNP): 54.6 ± 10.9 ng/mL | concentration at 2 h ([1]; 2 h after oral CNP): 60.5 ± 12 ng/mL | concentration at 3 h ([1]; 3 h after oral CNP): 69.5 ± 9.4 ng/mL | concentration at 4 h ([1]; 4 h after oral CNP): 83.9 ± 31.8 ng/mL | concentration at 6 h ([1]; 6 h after oral CNP): 113 ± 74.6 ng/mL | concentration at 8 h ([1]; 8 h after oral CNP): 80 ± 20.6 ng/mL | concentration at 12 h ([1]; 12 h after oral CNP): 63.9 ± 28.4 ng/mL | concentration at 24 h ([1]; 24 h after oral CNP): 22.4 ± 4.86 ng/mL | concentration at 48 h ([1]; 48 h after oral CNP): 19.4 ± 3.81 ng/mL | concentration at 72 h ([1]; 72 h after oral CNP): 9.62 ± 1.02 ng/mL | concentration at 96 h ([1]; 96 h after oral CNP): 6.43 ± 2.45 ng/mL | AUC(0-inf) ([1]; po, 60 mg/kg): 2810 ± 618 ng·h/mL | AUC(0-t) ([1]; po, 60 mg/kg): 2320 ± 683 ng·h/mL | Cmax ([1]; po, 60 mg/kg): 113 ± 41.8 ng/mL | Tmax ([1]; po, 60 mg/kg): 5.5 ± 1.8 h | half-life ([1]; po, 60 mg/kg): 36.9 ± 9.65 h | concentration at 0.25 h ([1]; po, 60 mg·kg^−1): 27.9 ± 4.54 ng/mL | concentration at 0.5 h ([1]; po, 60 mg·kg^−1): 38.1 ± 3.67 ng/mL | concentration at 1 h ([1]; po, 60 mg·kg^−1): 53.5 ± 12 ng/mL | concentration at 1.5 h ([1]; po, 60 mg·kg^−1): 58.4 ± 12.4 ng/mL | concentration at 2 h ([1]; po, 60 mg·kg^−1): 61.9 ± 19.5 ng/mL | concentration at 3 h ([1]; po, 60 mg·kg^−1): 78.1 ± 12.8 ng/mL | concentration at 4 h ([1]; po, 60 mg·kg^−1): 86.9 ± 41 ng/mL | concentration at 6 h ([1]; po, 60 mg·kg^−1): 107 ± 42.1 ng/mL | concentration at 8 h ([1]; po, 60 mg·kg^−1): 75.7 ± 26.3 ng/mL | concentration at 12 h ([1]; po, 60 mg·kg^−1): 53.9 ± 19.1 ng/mL | concentration at 24 h ([1]; po, 60 mg·kg^−1): 19.2 ± 5.86 ng/mL | concentration at 48 h ([1]; po, 60 mg·kg^−1): 18.9 ± 8.97 ng/mL | concentration at 72 h ([1]; po, 60 mg·kg^−1): 9.45 ± 3.37 ng/mL | concentration at 96 h ([1]; po, 60 mg·kg^−1): 6.79 ± 1.89 ng/mL | IC50 at 15 min ([2]; Sprague-Dawley, rat, pooled rat liver microsomes, pH 7.4, probe omeprazole (1.07 µM, in seven-probe cocktail), IC50 CYP2C19, single components, RLM 0.2 mg/mL, 15 min, triplicate, mean ± SD): 16.8 ± 2.52 µM | Response (% control) CYP2C19 [2, 10]: 98.58 % control | IC50 at 15 min ([3]; Sprague-Dawley, rat, pooled rat liver microsomes, pH 7.4, probe bupropion (90 µM, in seven-probe cocktail), IC50 CYP2B6, single components, RLM 0.2 mg/mL, 15 min, triplicate, mean ± SD): 121 ± 10.9 µM | Response (% control) CYP2B6 [3, 10]: 96.46 % control | IC50 at 15 min ([4]; Sprague-Dawley, rat, pooled rat liver microsomes, pH 7.4, probe tolbutamide (18 µM, in seven-probe cocktail), IC50 CYP2C9, single components, RLM 0.2 mg/mL, 15 min, triplicate, mean ± SD): 17.6 ± 2.03 µM | Response (% control) CYP2C9 [4, 10]: 99.70 % control | Response (% control) CYP2D6 ([5]; 15 min, pH 7.4): 98.58 % control | IC50 at 15 min ([5]; microsomes, pH 7.4, IC50 CYP2D6): 17.1 ± 1.29 µM | Response (% control) CYP3A4 ([6]; 15 min): 99.99 % control | IC50 at 15 min ([6]; microsomes): 30 ± 2.47 µM | IC50 ([7]; IC50 CYP1A2, single components, RLM 0.2 mg/mL, 15 min, triplicate, mean ± SD): 5.84 ± 0.14 µM | Response (% control) CYP1A2 [7, 10]: 79.30 % control | IC50 [8]: 28 ± 2.39 µM | Response (% control) CYP2E1 [9]: 99.99 % control
